Data reported in patent publication US5436229A, “Bisulfite adducts of arginine aldehydes” (Eli Lilly and Company, priority 1994, dated 1995).

Experiments:
[1] = system: human plasma; experiment: Human plasma anticoagulation, thrombin time (TT); format: biochemical
In short: (§1)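 Compounds added across a wide concentration range to human plasma; APTT, PT and TT clotting times measured on a coagulation instrument, bovine thrombin used for plasma assays. Concentration doubling clotting time estimated by linear extrapolation.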

[2] = system: human plasma; experiment: Human plasma anticoagulation, prothrombin time (PT); format: biochemical
In short: as §1

[3] = target: T1, Human plasmin (Homo sapiens, UniProt P00747); experiment: Serine protease inhibition (Kass), plasmin; format: biochemical
T1 construct: Human plasmin is purchased from Boehringer Mannheim; purchased Boehringer Mannheim, Indianapolis, Ind
In short: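 Chromogenic enzyme assays run as for human thrombin, giving association constants (Kass). Human plasmin used with H-D-Val-Leu-Lys-p-nitroanilide; t-PA (single-chain nt-PA or modified mt-PA6) with H-D-Ile-Pro-Arg-p-nitroanilide.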

[4] = target: T2, tissue plasminogen activator (t-PA) (Homo sapiens, UniProt P00750); experiment: Serine protease inhibition (Kass), t-PA; format: biochemical
T2 construct: purchased American Diagnostica, Greenwich, Conn

[5] = target: T3, Bovine trypsin (Bos taurus, UniProt P00760); experiment: Serine protease inhibition (Kass), trypsin; format: biochemical
T3 construct: Bovine trypsin is purchased from Worthington Biochemicals; purchased Worthington Biochemicals, Freehold, N.J
T3 sequence (P00760 24-246): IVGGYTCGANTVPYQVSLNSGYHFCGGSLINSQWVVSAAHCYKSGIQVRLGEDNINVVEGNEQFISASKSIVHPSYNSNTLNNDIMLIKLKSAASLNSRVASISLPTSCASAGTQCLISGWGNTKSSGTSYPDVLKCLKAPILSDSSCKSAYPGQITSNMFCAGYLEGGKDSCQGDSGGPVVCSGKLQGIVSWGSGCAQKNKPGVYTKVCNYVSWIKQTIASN
In short: (§2)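 Chromogenic p-nitroanilide substrate assays run as for human thrombin; trypsin with N-Benzoyl-Phe-Val-Arg-p-nitroanilide, human factor Xa with N-Benzoyl-Ile-Glu-Gly-Arg-p-nitroanilide. Values are association constants (Kass).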

[6] = target: human thrombin (Homo sapiens, UniProt P00734); experiment: Thrombin amidase inhibition (Kass), chromogenic substrate; format: biochemical
In short: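 Purified human thrombin (8 NIH units/ml solution) mixed with compound in 50% aqueous methanol and 0.03M Tris, 0.15M NaCl, pH 7.4; chromogenic substrate (0.25 mg/ml solution) added, p-nitroaniline release followed at 405 nm. Free thrombin read from a standard curve; Kass (L/mol) is the mean over a range of compound concentrations.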

[7] = Index of Bioavailability (plasma TT AUC, oral vs i.v.); format: in vivo; settings: rats, oral vs i.v. bolus
Description: Assays are done in duplicate and averaged.
Each sample population represents alternating sequential time points.

[8] = system: human plasma; experiment: Human plasma anticoagulation, activated partial thromboplastin time (APTT); format: biochemical
In short: as §1

[9] = target: T4, factor Xa (Homo sapiens, UniProt P00742); experiment: Serine protease inhibition (Kass), factor Xa; format: biochemical
T4 construct: Human factors X, Xa, IXa, XIa, and XIIa are purchased from Enzyme Research Laboratories; purchased Enzyme Research Laboratories, South Bend, Ind
In short: as §2

T4 sequence (P00742 235-488 limits assumed): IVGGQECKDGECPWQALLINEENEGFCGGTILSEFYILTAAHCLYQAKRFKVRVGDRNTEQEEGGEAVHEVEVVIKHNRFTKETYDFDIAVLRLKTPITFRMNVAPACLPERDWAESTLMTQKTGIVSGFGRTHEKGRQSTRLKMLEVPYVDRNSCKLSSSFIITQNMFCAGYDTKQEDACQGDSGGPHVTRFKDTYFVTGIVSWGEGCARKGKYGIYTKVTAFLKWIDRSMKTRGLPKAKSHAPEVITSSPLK
T4 sequence (P00742 41-179 partner limits assumed): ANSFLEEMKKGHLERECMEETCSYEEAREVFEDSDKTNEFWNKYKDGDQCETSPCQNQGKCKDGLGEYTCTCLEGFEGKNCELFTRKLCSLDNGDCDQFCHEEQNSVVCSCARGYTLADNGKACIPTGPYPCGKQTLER
T2 sequence (P00750 36-562): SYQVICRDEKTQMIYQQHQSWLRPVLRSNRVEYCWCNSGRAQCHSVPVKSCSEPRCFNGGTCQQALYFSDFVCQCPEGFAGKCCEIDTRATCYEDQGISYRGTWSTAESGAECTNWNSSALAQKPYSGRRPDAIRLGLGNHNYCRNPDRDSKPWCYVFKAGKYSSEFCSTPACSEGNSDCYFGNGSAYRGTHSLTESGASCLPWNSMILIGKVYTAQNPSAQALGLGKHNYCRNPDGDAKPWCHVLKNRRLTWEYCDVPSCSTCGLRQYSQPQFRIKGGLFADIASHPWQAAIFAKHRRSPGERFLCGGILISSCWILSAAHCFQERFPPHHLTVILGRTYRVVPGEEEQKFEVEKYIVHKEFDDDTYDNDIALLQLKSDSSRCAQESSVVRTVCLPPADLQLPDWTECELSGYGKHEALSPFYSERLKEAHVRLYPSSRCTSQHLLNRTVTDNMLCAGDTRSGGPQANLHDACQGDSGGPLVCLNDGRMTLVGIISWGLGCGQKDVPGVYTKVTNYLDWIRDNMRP
T1 sequence (P00747 581-810 limits assumed): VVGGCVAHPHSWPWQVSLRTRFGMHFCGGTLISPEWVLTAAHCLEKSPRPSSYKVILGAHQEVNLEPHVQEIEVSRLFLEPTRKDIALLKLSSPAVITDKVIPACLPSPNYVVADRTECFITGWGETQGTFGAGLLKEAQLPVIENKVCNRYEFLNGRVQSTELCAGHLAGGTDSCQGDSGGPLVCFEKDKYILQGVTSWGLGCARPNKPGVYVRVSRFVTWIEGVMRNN
T1 sequence (P00747 97-580 partner limits assumed): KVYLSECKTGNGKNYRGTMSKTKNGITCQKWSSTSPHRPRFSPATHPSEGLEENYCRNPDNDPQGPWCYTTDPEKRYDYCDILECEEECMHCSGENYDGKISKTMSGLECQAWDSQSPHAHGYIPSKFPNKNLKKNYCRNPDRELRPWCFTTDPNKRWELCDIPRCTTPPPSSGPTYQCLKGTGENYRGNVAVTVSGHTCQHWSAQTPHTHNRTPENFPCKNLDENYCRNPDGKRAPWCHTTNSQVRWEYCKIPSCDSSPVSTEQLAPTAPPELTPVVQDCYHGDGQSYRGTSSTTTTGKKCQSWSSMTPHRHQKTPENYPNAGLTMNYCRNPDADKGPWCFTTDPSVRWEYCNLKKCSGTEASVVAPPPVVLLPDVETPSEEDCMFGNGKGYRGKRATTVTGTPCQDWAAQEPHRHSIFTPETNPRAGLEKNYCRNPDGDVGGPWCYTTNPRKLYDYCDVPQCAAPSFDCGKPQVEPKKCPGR

Row | Kass Plasmin [3] [L/mol × 10^6] | Kass t-PA [4] [L/mol × 10^6] | Kass Trypsin [5] [L/mol × 10^6] | Kass Human Thrombin [6] | Percent Relative Activity (Index of Bioavailability) [7] [%] | Kass Xa [9] [L/mol × 10^6] | inhibition at 13 µg/mL ([4]; at 13 μg/mL, read-out: inhib. of t-PA) [%] | Compound | 2 × Clotting time TT [1] [ng/mL] | 2 × Clotting time PT [2] | 2 × Clotting time APTT [8]
1 | 0.41 | 0.17 | 12 | 58 L/mol × 10^6 | 3 | 0.080 |  | Cl.N=C(N)NCCC[C@@H](C=O)NC(=O)[C@@H]1CCCN1C(=O)[C@@H](Cc1ccccc1)NC(=O)c1cccnc1 [Example 47, N-(nicotinoyl)-D-phenylalanyl-L-Prolinyl-L-Arginine Aldehyde Hydrochloride] | 47 | 1,700 ng/mL | 1,300 ng/mL
2 | 17 | 13 | 220 | 690 L/mol × 10^6 | 27 | 2.4 |  | CS(=O)(=O)N[C@H](Cc1ccccc1)C(=O)N1CCC[C@H]1C(=O)N[C@H](C=O)CCCNC(=N)N.Cl [Example 51, N-(methylsulfonyl)-D-phenylalanyl-L-Prolinyl-L-Arginine Aldehyde Hydrochloride] | 21 | 530 ng/mL | 330 ng/mL
3 | 31 | 2.9 | 260 | 450 L/mol × 10^6 | 31 | 2.6 |  | CCS(=O)(=O)N[C@H](Cc1ccccc1)C(=O)N1CCC[C@H]1C(=O)N[C@H](C=O)CCCNC(=N)N.Cl [Example 52, N-(ethylsulfonyl)-D-phenylalanyl-L-Prolinyl-L-Arginine Aldehyde Hydrochloride] | 9 | 660 ng/mL | 260 ng/mL
4 | 29 | 2.8 | 480 | 1,700 L/mol × 10^6 | 14 | 13 |  | CCCS(=O)(=O)N[C@H](Cc1ccccc1)C(=O)N1CCC[C@H]1C(=O)N[C@H](C=O)CCCNC(=N)N.Cl [Example 53, N-(n-propylsulfonyl)-D-phenylalanyl-L-Prolinyl-L-Arginine Aldehyde Hydrochloride] | 6 | 510 ng/mL | 220 ng/mL
5 | 27 | 0.83 | 230 | 470 L/mol × 10^6 | 18 | 8.3 |  | CCCCS(=O)(=O)N[C@H](Cc1ccccc1)C(=O)N1CCC[C@H]1C(=O)N[C@H](C=O)CCCNC(=N)N.Cl [Example 54, N-(n-butylsulfonyl)-D-phenylalanyl-L-Prolinyl-L-Arginine Aldehyde Hydrochloride] | 18 | 700 ng/mL | 300 ng/mL
6 | 25 | 3.5 | 260 | 460 L/mol × 10^6 | 10 | 6.0 |  | CC(C)S(=O)(=O)N[C@H](Cc1ccccc1)C(=O)N1CCC[C@H]1C(=O)N[C@H](C=O)CCCNC(=N)N.Cl [Example 55, N-(isopropylsulfonyl)-D-phenylalanyl-L-Prolinyl-L-Arginine Aldehyde Hydrochloride] | 13 | 510 ng/mL | 270 ng/mL
7 | 21 |  | 160 | 300 L/mol × 10^6 | 26 | 3.9 | 100 | CN(C)S(=O)(=O)N[C@H](Cc1ccccc1)C(=O)N1CCC[C@H]1C(=O)N[C@H](C=O)CCCNC(=N)N.Cl [Example 56, N-(dimethylaminosulfonyl)-D-phenylalanyl-L-Prolinyl-L-Arginine Aldehyde Hydrochloride] | 46 | 480 ng/mL | 360 ng/mL
8 | 19 | 2.3 | 180 | 270 L/mol × 10^6 | 3 | 3.6 |  | Cl.N=C(N)NCCC[C@@H](C=O)NC(=O)[C@@H]1CCCN1C(=O)[C@@H](Cc1ccccc1)NS(=O)(=O)c1ccccc1 [Example 57, N-(phenylsulfonyl)-D-phenylalanyl-L-Prolinyl-L-Arginine Aldehyde Hydrochloride] | 14 | 930 ng/mL | 450 ng/mL
9 | 25 | 2.4 | 160 | 230 L/mol × 10^6 | 6 | 11 |  | Cl.N=C(N)NCCC[C@@H](C=O)NC(=O)[C@@H]1CCCN1C(=O)[C@@H](Cc1ccccc1)NS(=O)(=O)c1ccc(F)cc1F [Example 58, N-(2,4-difluorophenylsulfonyl)-D-phenylalanyl-L-Prolinyl-L-Arginine Aldehyde Hydrochloride] | 21 | 940 ng/mL | 350 ng/mL

Row | Compound | Kass Plasmin [3] [L/mol × 10^6] | Kass t-PA [4] [L/mol × 10^6] | Kass Trypsin [5] [L/mol × 10^6] | Kass Human Thrombin [6] | Percent Relative Activity (Index of Bioavailability) [7] [%] | Kass Xa [9] [L/mol × 10^6] | inhibition at 13 µg/mL ([4]; at 13 μg/mL, read-out: inhib. of t-PA) [%] | 2 × Clotting time TT [1] [ng/mL] | 2 × Clotting time PT [2] | 2 × Clotting time APTT [8]
10 | Cl.Cn1c(C(=O)N[C@H](Cc2ccccc2)C(=O)N2CCC[C@H]2C(=O)N[C@H](C=O)CCCNC(=N)N)cc2ccccc21 [Example 45, N-(1-methylindolyl-2-carbonyl)-D-phenylalanyl-L-Prolinyl-L-Arginine Aldehyde Hydrochloride] | 7.9 | 31 | 120 | 850 L/mol × 10^6 | 2 | 0.51 |  | 43 | 870 ng/mL | 440 ng/mL
11 | Cl.N=C(N)NCCC[C@@H](C=O)NC(=O)[C@@H]1CCCN1C(=O)[C@@H](Cc1ccccc1)NC(=O)c1cc2ccccc2cn1 [Example 46, N-(isoquinolinyl-2-carbonyl)-D-phenylalanyl-L-Prolinyl-L-Arginine Aldehyde Hydrochloride] | 0.55 | 0.32 | 22 | 110 L/mol × 10^6 | 1 | 0.16 |  | 35 | 1,400 ng/mL | 1,100 ng/mL
12 | CN[C@@H](C(=O)N1CCC[C@H]1C(=O)N[C@@H](CCCNC(=N)N)C(O)S(=O)(=O)[O-])c1ccccc1.O=S(=O)(O)O.[Na+] (stereo partly drawn) [Example 79, N-methyl-D-phenylglycinyl-L-prolinyl-NH-CH[(CH2)3 NH-C(NH)-NH2]-C(OH)SO3 Na.H2 SO4] | 1.8 | 0.01 | 84 | 239 L/mol × 10^6 | 21 |  |  |  |  | 
13 | N=C(N)NCCC[C@H](NC(=O)[C@@H]1CCCN1C(=O)C1CC2CCCCC2CN1)C(O)S(=O)(=O)[O-].O=S(=O)(O)O.[Na+] (stereo partly drawn) [Example 80, D-1,2,3,4,4a,6,7,8,8a-Perhydroisoquinolin-3-yl carbonyl-L-prolinyl-L-arginine aldehyde bisulfite sulfate] | 2.7 | 0.01 | 137 | 62 L/mol × 10^6 | 57 |  |  |  |  | 
14 | N-methyl-D-Phg-Pro-Arg-H.H2 SO4 [79 (Step A)] | 1.3 | 0.01 | 87 | 236 L/mol × 10^6 | 18 |  |  |  |  | 
